Ends that are not written are not given here.
System: NF-kB
Test: NF-kB translocation by EMSA on nuclear extracts of RAW 264.7 mouse macrophages, basal and LPS induced (second experiment)
Assay type: cell-based
Details: RAW264.7 cells, LPS in combination with peptide, 30 minutes of incubation, peptide 1 microgr/ml or 1 mg/ml
Method: RAW 264.7 mouse macrophages were cultured in DMEM, containing 10% or 2% FBS, penicillin, streptomycin and glutamine, at 37 °C, 5% CO2. […] After 30 minutes of incubation plates were centrifuged and cells were collected for nuclear extracts. Nuclear extracts and EMSA were prepared according to Schreiber et al. Cells were collected in a tube and centrifuged for 5 minutes at 2000 rpm (rounds per minute) at 4°C (Universal 30 RF, Hettich Zentrifuges). The pellet was washed with ice-cold Tris buffered saline (TBS pH 7.4) and resuspended in 400 μl of a hypotonic buffer A (10 mM HEPES pH 7.9, 10 mM KCl, 0.1 mM EDTA, 0.1 mM EGTA, 1 mM DTT, 0.5 mM PMSF and protease inhibitor cocktail (Complete^TM Mini, Roche) and left on ice for 15 minutes. Twenty five micro litre 10% NP-40 was added and the sample was centrifuged (2 minutes, 4000 rpm, 4°C). The supernatant (cytoplasmic fraction) was collected and stored at -70°C. […] The samples were left to shake at 4°C for at least 60 minutes. Finally the samples were centrifuged and the supernatant (nucleic fraction) was stored at -70°C. Bradford reagent (Sigma) was used to determine the final protein concentration in the extracts. […] Hundred pico mol sense and antisense oligo were annealed and labelled with […] using T4 polynucleotide kinase according to the manufacture's instructions (Promega, Madison, WI). […]

Substance: circular LQGVLPALPQVVC (also: circular / cyclised, mode of ring closure not given here) [NFkappaB down-regulating peptide]
- LPS induced translocation of NF-kB: inhibition

Source: patent EP1466611A1, “Use of HCG derived peptides in the treatment of iatrogenic diseases” (Biotempt B.V., priority 2003, dated 2004)
